Patent publication US10947252B2, “Inhibitors of KEAP1-Nrf2 protein-protein interaction” (Janssen Pharmaceutica NV, priority 2018, dated 2021)

Assays:
[1] = system: Glo-Response ARE-luc2P HEK293 cell line; assay: ARE luciferase reporter cell-based assay; conditions: average of results obtained;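 further: luciferase signal tracks Nrf2 activation of the ARE once compounds disrupt KEAP1-Nrf2 binding, read with One-Glo reagent, DMSO serving as low control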
[2] = molecular target: Kelch domain of human KEAP1 (321-624 aa) (Homo sapiens (Human), UniProt Q14145); assay: KEAP1 KELCH ThermoFluor binding assay; conditions: KEAP Kelch […], 1,8-ANS, pH 7.0, average of results obtained, read-out: Tf Kd;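 further: Ligand-induced melting temperature shift of E. coli-expressed KEAP1 Kelch protein, Kd estimated from concentration-response curves of ΔTm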
Kelch domain of human KEAP1 (321-624 aa), sequence (Q14145 321-624): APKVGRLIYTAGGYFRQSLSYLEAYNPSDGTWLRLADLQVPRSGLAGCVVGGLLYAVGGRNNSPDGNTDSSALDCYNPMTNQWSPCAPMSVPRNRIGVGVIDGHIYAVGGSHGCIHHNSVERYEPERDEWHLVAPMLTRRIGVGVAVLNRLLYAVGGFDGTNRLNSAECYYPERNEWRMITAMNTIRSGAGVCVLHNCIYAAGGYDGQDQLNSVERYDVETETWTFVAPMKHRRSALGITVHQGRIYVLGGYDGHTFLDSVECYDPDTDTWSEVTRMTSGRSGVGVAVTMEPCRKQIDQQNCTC
Description: The shift in the melting point described as a ΔTm is proportional to the concentration and affinity of the ligand. The compound potency may be compared as a rank order of either ΔTm values at a single compound concentration or in terms of KD values, estimated from concentration response curves.
The protein was expressed in E. coli with 6His tag that was cleaved prior to receipt for use.
Protein (KEAP Kelch) and compound solutions were dispensed into black 384-well polypropylene PCR microplates (Abgene) and overlayed with silicone oil (1 μL, Fluka, type DC 200) to prevent evaporation.

Kd [2]	Compound	EC50 ([1]; Homo sapiens, HEK293, 24 h)	EC50 ([1]; 24 hours)
< 1 nM	Cc1ccc([C@H](c2ccn3c(C(F)(F)F)nnc3c2C)C(C)(C)C(=O)O)cc1CN1CC(C)(C)Oc2ncccc2S1(=O)=O (single isomer, unassigned) [Example 431, (*R)-3-(3-((4,4-dimethyl-1,1-dioxido-3,4-dihydro-2H-pyrido[2,3-b][1,4,5]oxathiazepin-2-yl)methyl)-4-methylphenyl)-2,2-dimethyl-3-(8-methyl-3-(trifluoromethyl)-[1,2,4]triazolo[4,3-a]pyridin-7-yl)propanoic Acid]	2.84 nM	
< 1 nM	CCn1nnc2c(C)c(C(CC(=O)O)c3ccc(C)c(CN4CC5(CCOCC5)Oc5ccc(F)cc5S4(=O)=O)n3)ccc21 (racemic) [Example 417, 3-(1-Ethyl-4-methyl-1H-benzo[d][1,2,3]triazol-5-yl)-3-(6-((8-fluoro-1,1-dioxido-2′,3′,5′,6′-tetrahydrospiro[benzo[b][1,4,5]oxathiazepine-4,4′-pyran]-2(3H)-yl)methyl)-5-methylpyridin-2-yl)propanoic acid]	1.77 nM	
< 1 nM	Cc1cnc2c(c1)S(=O)(=O)N(Cc1cc([C@@H](c3ccn4c(C(F)(F)F)nnc4c3C)C(C)(C)C(=O)O)ccc1C)CC1(CC1)O2 (single isomer, unassigned) [Example 314, (*S)-2,2-Dimethyl-3-(4-methyl-3-((8′-methyl-1′,1′-dioxidospiro[cyclopropane-1,4′-pyrido[2,3-b][1,4,5]oxathiazepin]-2′(3′H)-yl)methyl)phenyl)-3-(8-methyl-3-(trifluoromethyl)-[1,2,4]triazolo[4,3-a]pyridin-7-yl)propanoic Acid]	1 nM	
131000 nM	Cc1cnc2c(c1)S(=O)(=O)N(Cc1nc([C@H](c3ccn4c(C(F)(F)F)nnc4c3C)C(C)(C)C(=O)O)ccc1C)CC1(CNC1)O2 (single isomer, unassigned) [Example 629, (*R)-2,2-Dimethyl-3-(8-methyl-3-(trifluoromethyl)-[1,2,4]triazolo[4,3-a]pyridin-7-yl)-3-(5-methyl-6-((8′-methyl-1′,1′-dioxidospiro[azetidine-3,4′-pyrido[2,3-b][1,4,5]oxathiazepin]-2′(3′H)-yl)methyl)pyridin-2-yl)propanoic Acid]	> 20000 nM	
< 1 nM	Cc1cnc2c(c1)S(=O)(=O)N(Cc1cc([C@@H](CC(=O)O)c3ccn4c(C(F)F)nnc4c3C)ccc1C)CC1(CC1)O2 (single isomer, unassigned) [Example 537, (*R)-3-(3-(Difluoromethyl)-8-methyl-[1,2,4]triazolo[4,3-a]pyridin-7-yl)-3-(4-methyl-3-((8′-methyl-1′,1′-dioxidospiro[cyclopropane-1,4′-pyrido[2,3-b][1,4,5]oxathiazepin]-2′(3′H)-yl)methyl)phenyl)propanoic Acid]	464 nM	
< 1 nM	Cc1ccc([C@H](CC(=O)O)c2ccn3c(C(F)(F)F)nnc3c2C)cc1CN1CC2(CC2)Oc2nc(NCCN3CCOCC3)ccc2S1(=O)=O (single isomer, unassigned) [Example 111, (*S)-3-(4-Methyl-((7′-((2-morpholinoethyl)amino)-1′,1′-dioxidospiro[cyclopropane-1,4′-pyrido[2,3-b][1,4,5]oxathiazepin]-2′(3′H)-yl)methyl)-4-methylphenyl)-3-(8-methyl-3-(trifluoromethyl)-[1,2,4 [triazolo[4,3-a]pyridine-7-yl)propanoic Acid]	588 nM	
< 1 nM	Cc1ccc([C@H](c2ccn3c(C(F)(F)F)nnc3c2C)C(C)(C)C(=O)O)cc1CN1CC2(CCOCC2)Oc2nc(NC(C)CN3CCCCC3)c(C)cc2S1(=O)=O (stereo in doubt) [Example 376, 3-(*R)-2,2-Dimethyl-3-(4-methyl-3-((8′-methyl-1′,1′-dioxido-7′-((1-piperidin-1-yl)propan-2-yl)amino)-2,3,5,6-tetrahydrospiro[pyran-4,4′-pyrido[2,3-b][1,4,5]oxathiazepin]-2′(3′H)-yl)methyl)phenyl)-3-(8-methyl-3-(trifluoromethyl)-[1,2,4]triazolo[4,3-a]pyridine-7-yl)propanoic Acid]	57.3 nM	
< 1 nM	Cc1cc2c(nc1OCCN1CCCC1)OC1(CC1)CN(Cc1cc([C@@H](c3ccc4c(nnn4C4CC4)c3C)C(C)(C)C(=O)O)cnc1C)S2(=O)=O (single isomer, unassigned) [Example 625, (*R)-3-(1-Cyclopropyl-4-methyl-1H-benzo[d][1,2,3]triazol-5-yl)-2,2-dimethyl-3-(6-methyl-5-((8′-methyl-1′,1′-dioxido-7′-(2-(pyrrolidine-1-yl)ethoxy)spiro[cyclopropane-1,4′-pyrido[2,3-b][1,4,5]]oxathiazepin]-2′(3′H)-yl)methyl)pyridine-3-yl)propanoic Acid]	70.6 nM	
< 1 nM	Cc1ccc(C(CC(=O)O)c2ccn3c(C(F)F)nnc3c2C)cc1CN1CC2CCCCN2c2ncc(C#N)cc2S1(=O)=O (stereo not shown) [Example 28, 3-(3-((3-Cyano-5,5-dioxido-7,7a, 8,9,10,11-hexahydro-6H-dipyrido[2,1-d:2′,3′-f][1,2,5]thiadiazepin-6-yl)methyl)-4-methylphenyl)-3-(3-(difluoromethyl)-8-methyl-[1,2,4]triazolo[4,3-a]pyridin-7-yl)propanoic Acid]	23.5 nM	
1880 nM	Cc1ccc([C@H](c2ccc3c(nnn3CC3CC3)c2C)C(C)(C)C(=O)O)nc1CN1CC2(CCOCC2)Oc2nc(OCCN3CCOCC3)ccc2S1(=O)=O (single isomer, unassigned) [Example 329, (*R)-3-(1-(Cyclopropylmethyl)-4-methyl-1H-benzo[d][1,2,3]triazol-5-yl)-2,2-dimethyl-3-(5-methyl-6-((7′-(2-morpholinoethoxy)-1′,1′-dioxido-2,3,5,6-tetrahydrospiro[pyran-4,4′-pyrido[2,3-b][1,4,5]oxathiazepin]-2′(3′H)-yl)methyl)pyridin-2-yl)propanoic Acid]	1900 nM	
5670 nM	Cc1cnc([C@H](c2ccn3c(C(F)(F)F)nnc3c2C)C(C)(C)C(=O)O)cc1CN1CC2(CCOCC2)Oc2ncccc2S1(=O)=O (single isomer, unassigned) [Example 57, (*R)-3-(4-((1′,1′-Dioxido-2,3,5,6-tetrahydrospiro[pyran-4,4′-pyrido[2,3-b][1,4,5]oxathiazepin]-2′(3′H)-yl)methyl)-5-methylpyridin-2-yl)-2,2-dimethyl-3-(8-methyl-3-(trifluoromethyl)-[1,2,4]triazolo[4,3-a]pyridin-7-yl)propanoic Acid]	6660 nM	
21 nM	Cc1cnc2c(c1)S(=O)(=O)N(Cc1cc([C@@H](CC(=O)O)c3ccn4c(C(F)(F)F)nnc4c3C)cnc1C)CC1(CC1)O2 (single isomer, unassigned) [Example 563, (*S)-3-(8-Methyl-3-(trifluoromethyl)-[1,2,4]triazolo[4,3-a]pyridin-7-yl)-3-(6-methyl-5-((8′-methyl-1′,1′-dioxidospiro[cyclopropane-1,4′-pyrido[2,3-b][1,4,5]oxathiazepin]-2′(3′H)-yl)methyl)pyridin-3-yl)propanoic Acid]	> 20000 nM	
< 1 nM	CCn1nnc2c(C)c([C@H](CC(=O)O)c3ccc(C)c(CN4CC5(COC5)Oc5ncccc5S4(=O)=O)n3)ccc21 (single isomer, unassigned) [Example 241, (*S)-3-(6-((1′,1′-Dioxidospiro[oxetane-3,4′-pyrido[2,3-b][1,4,5]oxathiazepin]-2′(3′H)-yl)methyl)-5-methylpyridin-2-yl)-3-(1-ethyl-4-methyl-1H-benzo[d][1,2,3]triazol-5-yl)propanoic Acid]	28 nM	
14 nM	Cc1ccc([C@H](CC(=O)O)c2ccc3c(nnn3C3CC3)c2C)cc1CN1C[C@@]2(C)CCCN2c2ncccc2S1(=O)=O (single isomer, unassigned) [Example 222, (*S)-3-(1-Cyclopropyl-4-methyl-1H-benzo[d][1,2,3]triazol-5-yl)-3-(4-methyl-3-(((*R)-7a-methyl-5,5-dioxido-7a,8,9,10-tetrahydropyrido[2,3-f]pyrrolo[2,1-d][1,2,5]thiadiazepin-6(7H)-yl)methyl)phenyl)propanoic Acid]	350 nM	
246 nM	Cc1cnc2c(c1)S(=O)(=O)N(Cc1cc([C@@H](c3ccn4c(C(F)(F)F)nnc4c3C)C(C)(C)C(=O)O)ccc1C)C[C@@]1(CCOC1)O2 (single isomer, unassigned) [Example 384, (*S)-2,2-Dimethyl-3-(4-methyl-3-(((*R)-8′-methyl-1′,1′-dioxido-4,5-dihydro-2H-spiro[furan-3,4′-pyrido[2,3-b][1,4,5]oxathiazepin]-2′(3′H)-yl)methyl)phenyl)-3-(8-methyl-3-(trifluoromethyl)-[1,2,4]triazolo[4,3-a]pyridin-7-yl)propanoic Acid]	150 nM	
< 1 nM	Cc1ccc([C@H](CC(=O)O)c2ccn3c(C(F)(F)F)nnc3c2C)cc1CN1CC(C)(C)Oc2ncccc2S1(=O)=O (single isomer, unassigned) [Example 269, (*S)-3-(3-((4,4-Dimethyl-1,1-dioxido-3,4-dihydro-2H-pyrido[2,3-b][1,4,5]oxathiazepin-2-yl)methyl)-4-methylphenyl)-3-(8-methyl-3-(trifluoromethyl)-[1,2,4]triazolo[4,3-a]pyridin-7-yl)propanoic Acid]	365 nM	
> 10000 nM	(*S)-3-(3-((7′-(3-((2-(2-aminoethoxy)ethyl)amino)-3-oxopropyl)-1′,1′-dioxido-2,3,5,6-tetrahydrospiro[pyran-4,4′-pyrido[2,3-b][1,4,5]oxathiazepin]-2′(3′H)-yl)methyl)-4-methylphenyl)-2,2-dimethyl-3-(8-methyl-3-(trifluoromethyl)-[1,2,4]triazolo[4,3-a]pyridin-7-yl)propanoic Acid [Example 345]		> 20 nM
